Values joined by “and” are separate entries in the source; they are usually repeats but may differ in a detail not shown here. Identical values can stand only once. Active and inactive are the calls of the source. The calls were made as follows: active = viability on the fitted dose curve at most 10% of control; inactive = the rest.
Tested on: SW 1271 complex tumor spheroid viability
Experiment: Anticancer human tumor SW 1271 cell line growth inhibition;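 as to IC50: spheroids exposed to agents for seven days before readout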;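 as to viability, T/C: spheroids exposed to agents for seven days before readout; percent of DMSO vehicle control luminescence so 100% = vehicle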
Settings: for viability, T/C: stronger effect = lower value
Text: Multicellular complex tumor spheroid response to DNA repair inhibitors in combination with DNA-damaging drugs
This study explores the anticancer activities of DNA-damaging drugs and inhibitors of DNA damage repair, both as single agents and in combinations. Complex tumor spheroids comprised of malignant cells, endothelial cells and mesenchymal stem cells served as an in vitro model for human solid tumors. This model system incorporates physiologically relevant features and patient-derived or established malignant cell lines with clinically relevant genetic alterations from many tumor types. Twenty-six patient-derived or established malignant cell lines were evaluated representing sarcoma, melanoma, small cell lung cancer (SCLC), non-small cell lung cancer (NSCLC), as well as bladder, ovarian and pancreatic cancers. The concentration ranges selected for each drug and investigational agent were based upon clinically achievable concentrations if the clinical Cmax of the agent was known.
Compounds. The drugs and compounds olaparib (NSC753686), talazoparib (NSC767125), berzosertib (NSC777718), elimusertib (NSC800525), nedisertib (NSC802822), VX-984 (NSC792969), AZD-1390 (NSC803789), temozolomide (NSC362856), topotecan (NSC609699), trabectedin (NSC813783), staurosporine (NSC755774), and gemcitabine (NSC613327) were obtained from the National Cancer Institute (NCI) Developmental Therapeutics Program Chemical Repository. The FDA-approved anticancer drug set is available from the Developmental Therapeutics Program at https://dtp.cancer.gov/organization/dscb/obtaining/available_plates.htm. […] The stock solutions were prepared in dimethyl sulfoxide (DMSO, Sigma-Aldrich, St. Louis, MO, cat. D2650) at 400-fold the tested concentration and stored at -70 degrees C. Prior to their use, the stock solutions were diluted in fresh medium and the final DMSO concentration in the assay was 0.25% (v/v). All drugs and investigational agents were tested over a range starting from a high concentration at or near the clinical Cmax and decreasing in half-log increments. If the clinical Cmax for an agent had not been determined, the highest concentration tested was 10 microM.
Cell Lines. The patient-derived cancer cell (PDC) lines: 156681-154-R-J1-PDC, 283228-195-R-J1-PDC, 287954-098-R-J1-PDC, 292921-168-R-J2-PDC, 349418-098-R-PDC, 425362-245-T-J1-PDC, 556581-035-R-J1-PDC, and BL0293-F563-PDC were received from the NCI Patient-Derived Models Repository (PDMR, https://pdmr.cancer.gov). The established cell lines HS-SY-2 (RRID:CVCL_8719), MPNST, and SYO-1 (RRID:CVCL_7146) were obtained from the Sloan Kettering Institute. The alveolar soft parts sarcoma cell line ASPS-1 (RRID:CVCL_S738) was established at the NCI and grown from internal seed stocks. The following established cell lines were purchased from the American Type Culture Collection (ATCC, Manassas, VA): G-401 (ATCC, cat. CRL-1441, RRID:CVCL_0270), SW982 (ATCC, cat. HTB-93, RRID:CVCL_1734), VA-ES-BJ (ATCC, cat. CRL-2138, RRID:CVCL_1785), NCI-H719 (ATCC, cat. CRL-5837, RRID:CVCL_1582), NCI-H196 (ATCC, cat. CRL-5823, RRID:CVCL_1509), NCI-H841 (ATCC, cat. CRL-5845, RRID:CVCL_1595), NCI-H1618 (ATCC, cat. CRL-5879, RRID:CVCL_1480), NCI-H1876 (ATCC, cat. CRL-5902, RRID:CVCL_1503), DMS 114 (ATCC, cat. CRL-2066; RRID:CVCL_1174), NCI-H211 (ATCC, cat. CRL-5824; RRID:CVCL_1529), and SW 1271 (ATCC, cat. CRL-2177, RRID:CVCL_1716). The small cell lung cancer cell line COR-L88 was purchased from Sigma-Aldrich (cat. 92031917-1VL, RRID:CVCL_1141). The non-small cell lung cancer cell lines NCI-H226 (RRID:CVCL_1544) and NCI-H322M (RRID:CVCL_1557) were established at the NCI and grown from internal seed stocks. Pooled donor human umbilical vein endothelial cells (HUVEC, Lonza, cat. CC-2519) and human mesenchymal stem cells (hMSC, Lonza, cat. PT-2501) were purchased from Lonza (Walkersville, MD).
Cell Culture. All cells were maintained in an incubator at 37 degrees C and 5% CO2 with 95% humidity. […]

[1] = compound alone, run of 11/07/2019
[2] = compound alone, run of 12/16/2019

Compound	viability, T/C (compound 0.0316 µM)	viability, T/C (compound 0.1 µM)	viability, T/C (compound 0.316 µM)	viability, T/C (compound 1 µM)	viability, T/C (compound 3.16 µM)	viability, T/C (compound 10 µM)	IC50 (curve of compound)	viability, T/C (compound 0.03 µM)	viability, T/C (compound 0.0949 µM)	viability, T/C (compound 0.3 µM)	viability, T/C (compound 0.949 µM)	viability, T/C (compound 3 µM)	other results
CC(C)n1c(=O)n(C)c2cnc3cc(F)c(-c4ccc(OCCCN5CCCCC5)nc4)cc3c21	94.1% and 98.9% and 79.6%	86.3% and 78.7%	92.8% and 94.3% and 72.7%	94.6% and 83.5% and 71.3%	86.3% and 70.8% and 59.2%	60.3% and 48.2% and 20.9%	> 10000 nM and 9160 nM and 4080 nM	–	–	–	–	–	outcome (compound 0.1 µM): inactive
CC1COCCN1c1cc(-c2ccnn2C)c2ccnc(-c3ccn[nH]3)c2n1 (configuration not stated)	76.6% and 87.1% and 78.6%	50.5% and 44.6% and 58.8%	25.2% and 31.1% and 21.6%	4.08% and 5.26% and 4.1%	2.44% and 3.8% and 2.04%	2.18% and 3.01% and 1.85%	107 nM and 93.4 nM and 131 nM	–	–	–	–	–	–
CC[C@@]1(O)C(=O)OCc2c1cc1n(c2=O)Cc2cc3c(CN(C)C)c(O)ccc3nc2-1	–	–	–	–	–	–	–	28.2% [middle of 10 runs]	27.2% [middle of 10 runs]	16.7% [middle of 10 runs]	–	–	viability, T/C (compound 0.003 µM): 88.3% [middle of 10 runs]; IC50 [1]: 8.96 nM [middle of 5 runs]; IC50 [2]: 11.7 nM [middle of 5 runs]
CNCc1ccc(-c2cc(-c3nc(-c4ccc(S(=O)(=O)C(C)C)cc4)cnc3N)on2)cc1	–	–	–	–	–	–	199 nM and 159 nM and 266 nM	103% and 101% and 109%	92% and 70.1% and 88.4%	26.4% and 24.2% and 45.3%	6.64% and 6.62% and 10.9%	0.13% and 0.12% and 0.2%	viability, T/C (compound 0.00949 µM): 105% and 99.4% and 104%
COc1cc(C)[nH]c(=O)c1CN1CCc2c(Cl)cc(C(OC)C3COC3)c(Cl)c2C1=O (configuration not stated)	98.5% and 98.1% and 104%	101% and 92.7% and 98.5%	102% and 86.8% and 91.5%	105% and 89.8% and 94.6%	94.8% and 79.1% and 95.3%	84% and 75.4% and 81.9%	> 10000 nM	–	–	–	–	–	–
COc1cc2c(cc1O)CCNC21CSC2c3c(OC(C)=O)c(C)c4c(c3C(COC1=O)N1C(O)C3Cc5cc(C)c(OC)c(O)c5C(C21)N3C)OCO4 (configuration not stated)	–	–	–	–	–	–	–	–	–	–	–	–	viability, T/C (compound 30 pM): 89.8% [middle of 10 runs]; viability, T/C (compound 94.9 pM): 64.2% [middle of 10 runs]; viability, T/C (compound 0.0003 µM): 34.4% [middle of 10 runs]; viability, T/C (compound 0.000949 µM): 3.63% [middle of 10 runs]; viability, T/C (compound 0.003 µM): 0.11% [middle of 6 runs]; IC50 [2]: 0.156 nM [middle of 10 runs]
COc1ccc([C@@H](O)c2cc(-c3ncnc4cc(N5CCOCC5)ccc34)c(F)cc2Cl)nn1	92.9% and 91.6% and 101%	93.1% and 83% and 92.6%	92.8% and 78.7% and 83.9%	77.2% and 72.9%	44.9% and 38.3% and 44%	8.13% and 13.3% and 6.11%	2630 nM and 1790 nM and 2520 nM	–	–	–	–	–	outcome (compound 1 µM): inactive
Cc1cc(C)c(CNC(=O)c2cc(-c3ccc(CN4CCOCC4)cc3)cc3c2cnn3C2CCCC2)c(=O)[nH]1	99.2% and 98.8% and 97.6%	95.9% and 99.6% and 92.9%	96.5% and 95.6% and 98.5%	94.5% and 91.5% and 91.4%	98.9% and 85.2% and 85.7%	85.4% and 73% and 66.3%	> 10000 nM	–	–	–	–	–	–
Cc1sc2c(c1C)C(c1ccc(Cl)cc1)=NC(CC(=O)Nc1ccc(O)cc1)c1nnc(C)n1-2 (configuration not stated)	–	–	–	–	–	–	76.2 nM and 80.2 nM and 136 nM	98.6% and 108% and 112%	38.7% and 40.3% and 67.7%	4.84% and 5.32% and 10.5%	1.98% and 1.57% and 1.36%	1.53% and 0.84% and 1.11%	viability, T/C (compound 0.00949 µM): 112% and 133% and 111%
Cn1ncnc1[C@H]1c2n[nH]c(=O)c3cc(F)cc(c23)N[C@@H]1c1ccc(F)cc1	–	–	–	–	–	–	< 9.49 nM and 23.5 nM	31.9% and 32.7% and 44.5%	21.2% and 24.7% and 35.2%	24.9% and 26.4% and 34.4%	25.2% and 26.3% and 30.4%	21.1% and 25.1% and 26.3%	viability, T/C (compound 0.00949 µM): 39.3% and 40% and 67.2%
Cn1nnc2c(C(N)=O)ncn2c1=O	–	–	–	97% [middle of 10 runs]	103% [middle of 10 runs]	–	–	–	–	–	–	–	IC50 [1]: > 100000 nM and 20700 nM
O=C(c1cc(Cc2n[nH]c(=O)c3ccccc23)ccc1F)N1CCN(C(=O)C2CC2)CC1	–	–	–	–	–	–	2270 nM and 2550 nM and 2470 nM	–	91.1% and 93% and 93.6%	77.1% and 81.2% and 80.7%	77% and 74.6% and 75.7%	41% and 45.6% and 42.4%	viability, T/C (compound 9.49 µM): 29.3% and 28.4% and 28.2%; viability, T/C (compound 30 µM): 24.2% (2×) and 16.6%
[2H]c1nc(C)nc([2H])c1-c1cc(NC[C@@H](C)c2cccc3c(C(=O)NC)ccnc23)ncn1	96.9% and 105% and 108%	98.7% and 104% and 106%	101% and 95.6% and 96.8%	104% (2×) and 99.2%	98% and 96.2% and 104%	90.8% and 102% and 96.7%	> 10000 nM	–	–	–	–	–	–

— PubChem BioAssay AID1845215 (Molecular Pharmacology Branch, DTP, NCI, 2023)
